Results reported in patent publication US9617517B2, “Small chemical compound which promotes induction of differentiation of stem cells into insulin-producing cells and method for inducing differentiation of stem cells into insulin-producing cells using said small chemical compound” (NATIONAL UNIVERSITY CORPORATION KUMAMOTO UNIVERSITY, priority 2011, dated 2017).
Structures can show the parent of a compound that is named as a salt.

Tests used:
[1] = test system: mouse ES cells (Pdx1/GFP); assay: Differentiation of mouse ES cells into insulin positive cells on nano fiber plate, immunostaining and quantitative image analysis; format: cell-based; conditions: for effect on differentiation into insulin-expressing cells: compound added d11-d17, insulin staining d17 (FIG. 4, 5, 7, 8, 10); for Relative value of Ins positive cells: number of cells with no compound = 1, concentration of each compound (μM), added d11, d13, d15, analysed d17; for hit confirmed by dose-responsiveness: 0.08 to 10 μM, SK7 ES cells; for induction of the differentiation of stem cells into insulin-producing cells: similar separate experiments; for number of Pdx1/GFP positive cells / number of insulin positive cells: 0 to 10 μM added from d11, counted d17 (FIG. 14)
Source text: Two ES cell lines, one expressing green fluorescent protein (GFP) under the control of insulin 1 promoter, designed ING (Higuchi Y., Shiraki N., Yamane K, Qin Z., Mochitate K., Araki K., Senokuchi K., Yamagata K., Hara M., Kume K., and Kume S., Synthesized basement membranes direct the differentiation of mouse embryonic stem cells into pancreatic lineages. J. Cell Science, 123, 2733-2742, 2010), and the other one expressing GFP under the control of Pdx1 promoter, designated SK7 (Shiraki N, Yoshida T, Araki K, et al. Guided differentiation of embryonic stem cells into Pdx1-expressing regional-specific definitive endoderm. Stem Cells. 2008; 26:874-885), were used. Both cell lines were maintained on mouse embryonic fibroblast (MEF) feeders in Glasgow minimum essential medium (Invitrogen) containing 1000 units/ml leukemia inhibitory factor (LIF; Chemicon), 15% Knocked-out Serum Replacement (KSR; Gibco), 1% fetal bovine serum (FBS; Hyclone), 100 μM nonessential amino acids (NEAA; Invitrogen), 2 mM L-glutamine (L-Gln; Invitrogen), 1 mM sodium pyruvate (Invitrogen), 50 units/ml penicillin and 50 μg/ml streptomycin (PS; Invitrogen) and 100 μM β-mercaptoethanol (β-ME; Sigma), as ES maintenance medium.
For the differentiation studies, ES cells were plated at 5,000 cells per well in Corning 96 well plate with Ultra-Web Synthetic Polyamine Surface (#3873XX1, Corning Coster, Cambridge, Miss.), and cultured. The cells were cultured in Dulbecco's Modified Eagle Medium (DMEM: Invitrogen, Glasgow, UK) containing 4500 mg/L glucose, supplemented with NEAA, L-Gln, PS, β-ME, 10 μg/ml insulin (Sigma-Aldrich), 5.5 μg/ml transferrin (Sigma-Aldrich), 6.7 pg/ml selenium (Sigma-Aldrich), and 0.25% Albmax (Invitrogen), 10 ng/mL recombinant human activin-A (R&D Systems, Minneapolis, Minn.), 5 ng/mL; recombinant human bFGF for 7 days (d1-d7) (I of FIG. 1). And then, the medium was changed to RPMI 1640 medium (Invitrogen) containing 2000 mg/L glucose (Sigma, St Louis, Mo.), 1 μM Retinoic acid (Sigma-Aldrich), 50 ng/ml Human Recombinant Fibroblast Growth Factor-10 (Peprotech, Rocky Hill, N.J.), B27 SUPPLEMENT (Invitrogen) and 0.25 μM 3-Keto-N-(aminoethyl-aminocaproyl-dihydrocinnamoyl) cyclopamine Shh Signaling Antagonist II (Calbiochem, San Diego, Calif.) on d7 to d11 (II of FIG. 1). Finally, the medium was switched to DMEM containing 1000 mg/L glucose supplemented with NEAA, L-Gln, PS, β-ME, 10 μg/ml insulin (Sigma-Aldrich), 5.5 μg/ml transferrin (Sigma-Aldrich), 6.7 pg/ml selenium (Sigma-Aldrich), 0.25% Albmax (Invitrogen) and 10 mM nicotinamide (Sigma-Aldrich) on d11 to d17 (III of FIG. 1). Media were replaced every 2 days with fresh medium and growth factors until d17.
All tested small chemical compounds were solved in dimethyl sulfoxide (DMSO) at given concentration. Compounds were added on d11, d13 and d15 in a medium. Final concentration of DMSO was adjusted at 1.0% in all experiments for compounds.
After 17 days cell culture, cultured ES cells were fixed in 4% paraformaldehyde in PBS for 30 min at room temperature, and rinsed several times with PBS. Then, cells were incubated in the added diluted primary antibody in 20% Blocking One (Nacalai tesque, Tokyo, Japan) in PEST (0.1% Tween-20 in PBS) in a humidified chamber for overnight at 4° C. After washing the cells in PBST, cells were incubated with the secondary antibody in 20% Blocking One for 2 hr at room temperature in dark. After washing off the secondary antibody in PBST, cells were counterstained with […] (DAPI) (Roche Diagnostics). The following antibodies were used as First antibodies: Rabbit anti-GFP (MBL International Corp., Woburn, Mass.), Mouse anti-Insulin (Sigma). The following antibodies were used as Secondary antibodies: Alexa 568-conjugated, Alexa 488-conjugated antibodies (Invitrogen) Cells were counterstained with DAPI (Roche Diagnotics, Basel, Switzerland).

differentiated ES cells [2] = assay: Real time PCR of gene expression in differentiated ES cells; format: cell-based, mouse; conditions: TBZ 2.5 μM
differentiated ES cells [3] = assay: Secreted insulin and cellular insulin content by mouse c-peptide ELISA; format: cell-based; conditions: TBZ 2.5 μM, dBu-cAMP 0.6 μM, day 11 to 17; sorted GFP positive cells day 17 (FIG. 18D)
Ngn3/GFP mouse ES cells = assay: Ngn3 positive cell inducing rate; format: cell-based
Description: The influence exerted on the Ngn3 positive cell inducing rate by addition of TBZ (2.5 μM) or dBu-cAMP (0.6 μM) was confirmed. FIG. 16A is a view schematically showing the addition periods of TBZ or dBu-cAMP, and the addition periods are a) on days 9 to 11 of culture, b) on days 11 to 13 of culture, and c) on days 9 to 13 of culture.
First, the compound was not added or TBZ was added on days 9 to 13 of culture (period c), and visible light photographs and fluorescence of Ngn3/GFP mouse ES cells were observed on day 13 of culture. The left one is a visible light photograph and the right one is fluorescence.
Next, the compound was not added, or TBZ or dBu-cAMP was added under the above-described conditions a), b) and c), and the proportion of GFP positive cells on day 13 of culture was checked. The ratios of the proportions of GFP positive cells and Ngn3 positive cells when the ratio in the case of no addition is 1 are shown in FIG. 16C. […] The order of intensity of the effect was a), c), b) in descending order.

N[C@@H](Cc1c[nH]c2ccc(O)cc12)C(=O)O [5HTP, 5-hydroxytryptophan]
effect on differentiation into insulin-expressing cells [1]: the same effect

CO[C@@H]1[C@@H]2OP(=O)(O)OC[C@H]2O[C@H]1n1c(Sc2ccc(Cl)cc2)nc2c(N)ncnc21 [8-CPT-2-Me-cAMP]
Relative value of Ins positive cells [1]: 3.7

C[N+](C)(C)CCOC(N)=O [Carbachol, carbachol]
effect on differentiation into insulin-expressing cells [1]: increased insulin positive cells

C[C@@](Cc1ccc(O)c(O)c1)(NN)C(=O)O [Carbidopa, carbidopa]
effect on differentiation into insulin-expressing cells [1]: the same effect

CN1CC[C@@]2(C)c3cc(O)ccc3N(C)[C@@H]12.O=C(O)/C=C/C(=O)O [Eseroline fumarate salt, eseroline fumarate]
hit confirmed by dose-responsiveness [1]: positive | effect on differentiation into insulin-expressing cells [1]: increased insulin positive cells | Relative value of Ins positive cells [1]: 1.8

Nc1nc2ncc(CNc3ccc(C(=O)N[C@@H](CCC(=O)O)C(=O)O)cc3)nc2c(=O)[nH]1 [Folic acid, folic acid]
hit confirmed by dose-responsiveness [1]: positive

COc1cc2c(cc1OC)-c1cc3ccc(OC)c(OC)c3c[n+]1CC2 [Palmatine chloride, palmatine chloride]
hit confirmed by dose-responsiveness [1]: positive | effect on differentiation into insulin-expressing cells [1]: increased insulin positive cells

C#CCN(C)Cc1ccccc1 [Pargyline, pargyline hydrochloride]
effect on differentiation of Pdx1 positive cells into insulin-producing cells ([1]; 1 μM Pargyline (FIG. 6, 7)): disturbs the differentiation of Pdx1 positive cells into insulin-producing cells | effect on Pdx1 positive pancreatic precursor cells ([1]; reserpine 0.63 μM, Pargyline 1 μM (FIG. 6, 7)): without influencing the ratio of Pdx1-expressing cells | induction of the differentiation of stem cells into insulin-producing cells [1]: induce the differentiation of stem cells into insulin-producing cells | effect of 1 μM Pargyline on differentiation in presence of reserpine ([1]; with 0.63 μM reserpine): deactivated

COc1cc2c(cc1OC)C1CC(=O)C(CC(C)C)CN1CC2 (stereo not shown) [Tetrabenazine, tetrabenazine]
expression of Abcc8 (differentiated ES cells [2]; dBu-cAMP 0.6 μM (FIG. 13)): did not increase | expression of Glut2 (differentiated ES cells [2]; dBu-cAMP 0.6 μM (FIG. 13)): did not increase | expression of MafA (differentiated ES cells [2]; dBu-cAMP 0.6 μM (FIG. 13)): increased slightly | expression of Stx1 (differentiated ES cells [2]; dBu-cAMP 0.6 μM (FIG. 13)): increased slightly | expression level of MafA, time course (differentiated ES cells [2]; dBu-cAMP 0.6 μM from day 11, after day 13 (FIG. 15)): promoted | expression level of Nkx6.1 (differentiated ES cells [2]; dBu-cAMP 0.6 μM from day 11, after day 15 (FIG. 15)): strongly promoted | expression level of Ngn3 (differentiated ES cells [2]; dBu-cAMP 0.6 μM from day 11, day 13 and day 15 (FIG. 15)): increased remarkably | expression level of Insulin1 (differentiated ES cells [2]; dBu-cAMP 0.6 μM from day 11, single after day 13, both after day 15 (FIG. 15)): promoted | C-peptide content of GFP positive cells (differentiated ES cells [3]): increased | effect on differentiation into insulin-expressing cells [1]: promoted the differentiation into insulin-expressing cells | Ngn3 positive cells (fluorescence) (Ngn3/GFP mouse ES cells; TBZ 2.5 μM on days 9 to 13, observed day 13 (FIG. 16B)): increase of Ngn3 positive cells | number of GFP positive cells (Ngn3/GFP mouse ES cells; TBZ 2.5 μM or dBu-cAMP 0.6 μM, addition days 9-11, 11-13 or 9-13, day 13 (FIG. 16C)): increased in all conditions

C[C@](N)(Cc1ccc(O)cc1)C(=O)O [alpha- Methyltyrosine, α-methyltyrosine]
effect on differentiation into insulin-expressing cells [1]: the same effect

O=C(CCCN1CCN(c2ccccn2)CC1)c1ccc(F)cc1 [azaperone]
induction of the differentiation of stem cells into insulin-producing cells [1]: induce the differentiation of stem cells into insulin-producing cells

CN(C)CCC(c1ccc(Cl)cc1)c1ccccn1 (stereo not shown) [chlorpheniramine maleate]
induction of the differentiation of stem cells into insulin-producing cells [1]: induce the differentiation of stem cells into insulin-producing cells

CN/C(=N/CCSCc1nc[nH]c1C)NC#N [cimetidine]
induction of the differentiation of stem cells into insulin-producing cells [1]: induce the differentiation of stem cells into insulin-producing cells

CN(C)CCCSC(=N)N [dimaprit dihydrochloride]
induction of the differentiation of stem cells into insulin-producing cells [1]: induce the differentiation of stem cells into insulin-producing cells

NCCc1ccc(O)c(O)c1 [dopamine]
effect on insulin positive cells ([1]; 0.1 μM dopamine (FIG. 11B)): decreased insulin positive cells | effect on enhancement effect of dBu-cAMP ([1]; 0.1 μM dopamine with 0.6 μM dBu-cAMP (FIG. 11B)): scarcely influenced | effect on increase of insulin-expressing cells mediated by reserpine ([1]; 0.1 μM dopamine with 0.6 μM reserpine (FIG. 11B)): inhibited completely | concentration inhibiting completely the differentiation of β cells ([1]; FIG. 8): ≥ 100 nM | effect on differentiation into insulin-expressing cells [1]: suppressed the differentiation of pancreas in a dose-dependent manner

Cc1c2ccncc2c(C)c2c1[nH]c1ccccc12 [ellipticine]
hit confirmed by dose-responsiveness [1]: positive

COCCCC/C(=N\OCCN)c1ccc(C(F)(F)F)cc1 [fluvoxamine maleate]
induction of the differentiation of stem cells into insulin-producing cells [1]: induce the differentiation of stem cells into insulin-producing cells

C[C@@H]1C(=O)O[C@H]2C[C@@]34[C@H]5C[C@@H](C(C)(C)C)[C@]36[C@@H](OC(=O)[C@@H]6O)O[C@@]4(C(=O)O5)[C@]21O [ginkgolide A]
induction of the differentiation of stem cells into insulin-producing cells [1]: induce the differentiation of stem cells into insulin-producing cells

NCCc1c[nH]cn1 [histamine]
number of Pdx1/GFP positive cells [1]: did not vary | number of insulin positive cells [1]: decreased in a concentration-dependent manner

OCCOCCN1CCN(C(c2ccccc2)c2ccc(Cl)cc2)CC1 (stereo not shown) [hydroxyzine dihydrochloride]
induction of the differentiation of stem cells into insulin-producing cells [1]: induce the differentiation of stem cells into insulin-producing cells

Cc1nccn1CC1CCc2c(c3ccccc3n2C)C1=O (stereo not shown) [ondansetron hydrochloride]
induction of the differentiation of stem cells into insulin-producing cells [1]: induce the differentiation of stem cells into insulin-producing cells

CCN(CC)CCCC(C)Nc1c2ccc(Cl)cc2nc2ccc(OC)cc12 (stereo not shown) [quinacrine dihydrochloride dihydrate]
induction of the differentiation of stem cells into insulin-producing cells [1]: induce the differentiation of stem cells into insulin-producing cells

NCCc1c[nH]c2ccc(O)cc12 [serotonin]
number of Pdx1/GFP positive cells [1]: did not vary | number of insulin positive cells [1]: decreased in a concentration-dependent manner
